Data taken from doi:10.1101/2025.03.31.646301v1, “Discovery of Tankyrase scaffolding inhibitor specifically targeting the ARC4 peptide binding domain” (biorxiv, 2025).
pIC50: −log10 of the molar value.

Key:
TNKS1 ARC5 = target: T1, TNKS1 ARC5 (Homo sapiens, UniProt O95271); test: FRET displacement of YFP-REAGDGEE peptide from CFP-ARC; format: binding
T1 construct: gene TNKS; ankyrin repeat cluster 5 domain, 6xHis-mCerulean (CFP) fusion, E. coli
T1 sequence (O95271 806-966 limits assumed): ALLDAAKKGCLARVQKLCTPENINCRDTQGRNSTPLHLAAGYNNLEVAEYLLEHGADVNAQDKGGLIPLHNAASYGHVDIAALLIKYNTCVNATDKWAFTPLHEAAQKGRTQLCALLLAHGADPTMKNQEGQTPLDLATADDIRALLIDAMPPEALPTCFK
Excerpt: FRET displacement of YFP-REAGDGEE peptide from CFP-ARC on TNKS1 ARC5

TNKS2 ARC1 = target: T2, TNKS2 ARC1 (Homo sapiens, UniProt Q9H2K2); test: as above; format: binding
T2 construct: ankyrin repeat cluster 1 domain, 6xHis-mCerulean (CFP) fusion, E. coli
T2 sequence (Q9H2K2 21-174 limits assumed): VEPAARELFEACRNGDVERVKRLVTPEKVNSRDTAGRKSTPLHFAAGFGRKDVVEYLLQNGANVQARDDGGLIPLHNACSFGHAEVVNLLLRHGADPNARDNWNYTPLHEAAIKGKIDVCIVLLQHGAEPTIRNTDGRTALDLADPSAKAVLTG
Excerpt: FRET displacement of YFP-REAGDGEE peptide from CFP-ARC on TNKS2 ARC1

TNKS2 ARC4 [1] = target: T3, TNKS2 ARC4 (Homo sapiens, UniProt Q9H2K2); test: as above; format: binding
T3 construct: ankyrin repeat cluster 4 domain; FRET: 6xHis-mCerulean (CFP) fusion; DSF, NMR, crystal: MBP and His tag cleaved by TEV, residues 487-649 printed for crystal; E. coli BL21(DE3)
T3 sequence (Q9H2K2 487-649): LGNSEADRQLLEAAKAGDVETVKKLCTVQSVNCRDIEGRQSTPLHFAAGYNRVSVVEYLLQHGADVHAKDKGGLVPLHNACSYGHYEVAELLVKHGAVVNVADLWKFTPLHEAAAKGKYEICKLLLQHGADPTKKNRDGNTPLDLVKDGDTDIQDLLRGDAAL

TNKS1 ARC2-3 = target: T4, TNKS1 ARC2-3 (Homo sapiens, UniProt O95271); test: as above; format: binding
T4 construct: gene TNKS; ankyrin repeat clusters 2-3, 6xHis-mCerulean (CFP) fusion, E. coli
T4 sequence (O95271 336-649 limits assumed): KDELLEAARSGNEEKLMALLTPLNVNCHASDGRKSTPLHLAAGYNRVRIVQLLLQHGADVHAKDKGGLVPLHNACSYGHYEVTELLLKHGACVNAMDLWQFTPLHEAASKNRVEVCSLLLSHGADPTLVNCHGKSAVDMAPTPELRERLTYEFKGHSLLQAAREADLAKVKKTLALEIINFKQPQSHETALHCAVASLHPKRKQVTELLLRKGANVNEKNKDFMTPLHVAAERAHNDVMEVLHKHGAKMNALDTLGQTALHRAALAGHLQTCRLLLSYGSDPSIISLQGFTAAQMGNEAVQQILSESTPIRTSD
Excerpt: FRET displacement of YFP-REAGDGEE peptide from CFP-ARC on TNKS1 ARC2-3

TNKS1 ARC1 = target: T5, TNKS1 ARC1 (Homo sapiens, UniProt O95271); test: as above; format: binding
T5 construct: gene TNKS; ankyrin repeat cluster 1 domain, 6xHis-mCerulean (CFP) fusion, E. coli
T5 sequence (O95271 173-336 limits assumed): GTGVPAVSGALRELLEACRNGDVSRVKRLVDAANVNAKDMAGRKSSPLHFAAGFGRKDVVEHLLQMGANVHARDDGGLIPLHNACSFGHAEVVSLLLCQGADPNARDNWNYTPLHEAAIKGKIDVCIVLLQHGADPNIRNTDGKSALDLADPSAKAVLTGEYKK
Excerpt: FRET displacement of YFP-REAGDGEE peptide from CFP-ARC on TNKS1 ARC1

TNKS2 ARC2 = target: T6, TNKS2 ARC2 (Homo sapiens, UniProt Q9H2K2); test: as above; format: binding
T6 construct: ankyrin repeat cluster 2 domain, 6xHis-mCerulean (CFP) fusion, E. coli
T6 sequence (Q9H2K2 173-329 limits assumed): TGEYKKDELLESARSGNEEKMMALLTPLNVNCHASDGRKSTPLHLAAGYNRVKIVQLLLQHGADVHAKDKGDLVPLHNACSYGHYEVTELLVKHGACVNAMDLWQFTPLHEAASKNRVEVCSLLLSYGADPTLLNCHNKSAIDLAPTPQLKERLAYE
Excerpt: FRET displacement of YFP-REAGDGEE peptide from CFP-ARC on TNKS2 ARC2

TNKS2 ARC5 = target: T7, TNKS2 ARC5 (Homo sapiens, UniProt Q9H2K2); test: as above; format: binding
T7 construct: ankyrin repeat cluster 5 domain, 6xHis-mCerulean (CFP) fusion, E. coli
T7 sequence (Q9H2K2 646-800 limits assumed): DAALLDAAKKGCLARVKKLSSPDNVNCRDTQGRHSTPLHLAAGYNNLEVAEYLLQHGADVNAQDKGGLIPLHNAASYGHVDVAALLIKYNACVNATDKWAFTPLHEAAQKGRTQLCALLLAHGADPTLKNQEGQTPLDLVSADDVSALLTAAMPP
Excerpt: FRET displacement of YFP-REAGDGEE peptide from CFP-ARC on TNKS2 ARC5

TNKS1 ARC4 = target: T8, TNKS1 ARC4 (Homo sapiens, UniProt O95271); test: as above; format: binding
T8 construct: gene TNKS; ankyrin repeat cluster 4 domain, 6xHis-mCerulean (CFP) fusion, E. coli
T8 sequence (O95271 649-806 limits assumed): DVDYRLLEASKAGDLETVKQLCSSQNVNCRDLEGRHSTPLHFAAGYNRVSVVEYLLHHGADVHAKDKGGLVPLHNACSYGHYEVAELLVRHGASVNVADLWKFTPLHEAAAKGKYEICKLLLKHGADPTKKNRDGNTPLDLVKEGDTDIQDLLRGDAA
Excerpt: FRET displacement of YFP-REAGDGEE peptide from CFP-ARC on TNKS1 ARC4

TNKS2 ARC4 [2] = target: T3, TNKS2 ARC4; design: DSF thermal shift of TNKS2 ARC4, stabilization over DMSO control; conditions: binder
Excerpt: Given the notable stabilization of the pyrrolone-based compounds from the Commercials Diversity collection, we decided to focus on their common scaffold for compound optimization. Pyrrolone is indeed a versatile moiety that is largely employed for the design of compounds with a variety of biological effects.[55] The nine primary hits were acquired from commercial suppliers, they underwent quality control, additional DSF validation and determination of potency through FRET-based IC50 measurements (Table 1). All the tested compounds include a benzodioxane moiety (R[1]), a [compound left out] group with substitutions in the para position (R[2]), and an R[3] group with an aliphatic character and a tertiary amine. […] In addition, all molecules, except for 7, have IC50 values below 100 µM. Among the nine molecules, 1 performed the best in terms of stabilization of TNKS2 ARC4 and potency. […] In the same position, the presence of a hydrophobic methyl group (3, 4), other halogen substituents (5) and alkoxy groups (6–9) is also tolerated, even if not optimal. […] A SAR investigation was conducted with purchased and synthesized analogues of 1 through FRET-based potency measurements and DSF assay with TNKS2 ARC4 (Table 2, Table S2). All the compounds commercially acquired underwent quality control. […] Changes to the length of the aliphatic chain at R[3] greatly impacts both potency and protein stabilization. […] The diethylamino-based substituent at R[3] […] Compounds 25 and 26 further indicate that the presence of tertiary amine at R[3] is not necessary to achieve binding. […] 5 Figure S2. DSF assay results for validation of primary hits identified in the EU-OPENSCREEN Commercials Diversity Library. (A) and (B) show DSF assay validation measurements of TNKS2 ARC4 with primary hits from the Commercial Diversity Library. Compounds are tested at 100 μM. They are named after their EU-OPENSCREEN identity codes and the identities are available for consultation on ECBD. 1,2 (A) and (B) show results from two independent experiments. For each experiment, each compound was tested with a single measurement, while controls (TNKS2 ARC4 with 100 μM optimized peptide, TNKS2 ARC4 with 100 μM DMSO) are studied in at least four replicates and errors are shown. Moreover, stabilization over the control (TNKS2 ARC4 with DMSO) is indicated (ΔTm °C). […] It was not possible to measure the melting curve of TNKS2 ARC4 in presence of EOS21552, EOS54043, EOS54043.

TNKS2 ARC4 [3] = target: T3, TNKS2 ARC4; test: X-ray co-crystal structure; format: binding; conditions: residues 487-649, tag-free, pH 4.2; S enantiomer in TBM pocket, R enantiomer at crystal contacts

## CCN(CC)CCCN1C(=O)C(O)=C(C(=O)c2ccc3c(c2)OCCO3)C1c1ccc(O)cc1 (stereo not drawn) [compound 1, 1]
TNKS1 ARC5
  pIC50: < 3.00
TNKS2 ARC1
  pIC50: < 3.00
TNKS2 ARC4 [1]
  pIC50: 4.80
TNKS1 ARC2-3
  pIC50: < 3.00
TNKS1 ARC1
  pIC50: < 3.00
TNKS2 ARC2
  pIC50: < 3.00
TNKS2 ARC5
  pIC50: < 3.00
TNKS1 ARC4
  pIC50: 4.74

## COc1ccc(C2C(C(=O)c3ccc4c(c3)OCCO4)=C(O)C(=O)N2CCCN2CCOCC2)cc1 (stereo not drawn) [compound 6, 6]
TNKS1 ARC5
  pIC50: < 3.00
TNKS2 ARC1
  pIC50: < 3.00
TNKS2 ARC4 [2]
  ΔTm ± SD (°C): 1.81 ± 0.31 °C
TNKS2 ARC4 [1]
  pIC50: 4.09
TNKS1 ARC2-3
  pIC50: < 3.00
TNKS1 ARC1
  pIC50: < 3.00
TNKS2 ARC2
  pIC50: < 3.00
TNKS2 ARC5
  pIC50: < 3.00
TNKS1 ARC4
  pIC50: 3.91

## Cc1ccc(C2C(C(=O)c3ccc4c(c3)OCCO4)=C(O)C(=O)N2CCCN2CCOCC2)cc1 (stereo not drawn) [compound 4, 4]
TNKS1 ARC5
  pIC50: < 3.00
TNKS2 ARC1
  pIC50: < 3.00
TNKS2 ARC4 [2]
  ΔTm ± SD (°C): 2.19 ± 0.31 °C
TNKS2 ARC4 [1]
  pIC50: 4.11
TNKS1 ARC2-3
  pIC50: < 3.00
TNKS1 ARC1
  pIC50: < 3.00
TNKS2 ARC2
  pIC50: < 3.00
TNKS2 ARC5
  pIC50: < 3.00
TNKS1 ARC4
  pIC50: 3.92

## CCC(CC)CCCN1C(=O)C(O)=C(C(=O)c2ccc3c(c2)OCCO3)[C@@H]1c1ccc(O)cc1 [S8]
TNKS2 ARC4 [3]
  X-ray co-crystal structure: we co-crystallized the compound displaying the best potency (S8) with TNKS2 ARC4
TNKS1 ARC5
  pIC50: < 3.00
TNKS2 ARC4 [2]
  ΔTm ± SD (°C): 2.44 ± 0.12 °C
TNKS1 ARC2-3
  pIC50: < 3.00
TNKS1 ARC1
  pIC50: < 3.00
TNKS2 ARC2
  pIC50: < 3.00
TNKS1 ARC4
  pIC50: 5.05
